Tests used:
[1] = Toxicity study in C57Bl/6 mice; details: 150 mg/kg twice daily, oral gavage, 14 days, versus solvent control
Experimental: Sex and age matched C57Bl/6 mice were randomized into two groups treated twice daily with either CARM1 inhibitor (150 mg/kg) or vehicle via oral gavage for 14 days. Major organs including heart, spleen, kidney, liver, lung and small intestine were harvested for pathological assessment. […] Scale bar=50 μM.

B16F10 melanomas = assay: Flow cytometry of tumor-infiltrating immune cells, B16F10 melanomas treated with CARM1 inhibitor; format: in vivo, mouse
Excerpt: FIG. 15A illustrates changes in tumor microenvironment induced by monotherapy or combination therapy with CARM1 inhibitor, showing treatment of mice with B16F10 melanomas with CARM1 inhibitor or vehicle control. Mice also received isotype control, CTLA-4 or PD-1 mAbs, as indicated (n=5 mice/group). Representative flow plots of CD8 T cells gated on live/singlets/CD45+/CD3+ cells from indicated groups are shown on left. Quantification of CD8 T cells is shown as percentage of CD3+ T cells (middle) or number per gram of tumor (right) for the indicated treatment groups.
FIG. 15B illustrates changes in tumor microenvironment induced by monotherapy or combination therapy with CARM1 inhibitor, showing number of intra-tumoral granzyme B+CD8+ T cells per gram of tumor for the indicated treatment groups (n=5 mice/group). Representative flow plots are shown on left.
FIG. 15C illustrates changes in tumor microenvironment induced by monotherapy or combination therapy with CARM1 inhibitor, showing number of intra-tumoral IL2+CD8+ T cells per gram of tumor for the indicated treatment groups (n=5 mice/group).
FIG. 15D illustrates changes in tumor microenvironment induced by monotherapy or combination therapy with CARM1 inhibitor, showing number of intra-tumoral IFNγ+CD8+ T cells per gram of tumor for the indicated treatment groups (n=5 mice/group). Representative flow plots are shown on left.
FIG. 15E illustrates changes in tumor microenvironment induced by monotherapy or combination therapy with CARM1 inhibitor, showing number of intra-tumoral perforin+CD8+ T cells per gram of tumor for the indicated treatment groups (n=5 mice/group).
FIG. 15F illustrates changes in tumor microenvironment induced by monotherapy or combination therapy with CARM1 inhibitor, showing analysis of intra-tumoral PD1+CD8+ T cells (quantified as percentage of CD8+ T cells) for the indicated treatment groups (n=5 mice/group). Representative flow plots (left) and quantification of PD-1 expression as percentage of CD8 T cells (middle) or MFI (right) are shown.
FIG. 16A illustrates changes in tumor microenvironment induced by monotherapy or combination therapy with CARM1 inhibitor, showing treatment of mice with B16F10 melanomas with CARM1 inhibitor or vehicle control. Mice also received isotype control, CTLA-4 or PD-1 mAbs, as indicated (n=5 mice/group). Quantification of CD4+ T cells (number per gram of tumor) for the indicated treatment groups.
FIG. 16B illustrates changes in tumor microenvironment induced by monotherapy or combination therapy with CARM1 inhibitor, showing quantification of IFNγ+ cells (as percentage of CD4+ T cells) for the indicated treatment groups.
FIG. 16C illustrates changes in tumor microenvironment induced by monotherapy or combination therapy with CARM1 inhibitor, showing quantification of FoxP3+ Treg cells (as percentage of CD4+ T cells) for the indicated treatment groups.
FIG. 16D illustrates changes in tumor microenvironment induced by monotherapy or combination therapy with CARM1 inhibitor, showing quantification of the CD8/FoxP3 Treg ratio for the indicated treatment groups.
FIG. 16E illustrates changes in tumor microenvironment induced by monotherapy or combination therapy with CARM1 inhibitor, showing number of intra-tumoral NK cells (left), dendritic cells (live, singlet, CD45+CD3−F4/80-CD11c+ MHCII^hi) (middle) and macrophages (live, singlet, CD45+CD3−F4/80+) (right) calculated per gram of tumor.
Inhibitor treatment was performed for 14 days because limited quantities of the compound were available.
Tumors were excised on day 18 following tumor cell inoculation and cut into small pieces using sterile scalpels in serum-free RPMI 1640 media (ThermoFisher #11875093). […]

[2] = tested on: malignant melanoma cell lines; details: cited from earlier work
[3] = all three CARM1 inhibitor treatment groups
[4] = combined with PD-1 or CTLA-4 mAbs

CNC[C@@H](O)COc1ccc(Cl)c(-c2nc(-c3c(C)noc3C)c(C)c(N3CC4(CCN(C(=O)OC)CC4)C3)n2)c1 (stereo in doubt) [EZM2302]
histological changes in major organs [1]: no histological changes
weight loss [1]: no histological changes was observed in a comprehensive analysis of major organs or weight loss
number of CD8 T cells (per gram of tumor) that expressed granzyme B, IL-2, IFNγ, and perforin (B16F10 melanomas; [3]): striking increase
tumor-infiltrating NK cells (B16F10 melanomas; [3]): increased
macrophage numbers (B16F10 melanomas; any of the treatment groups): no changes in macrophage numbers
CD8 T cell infiltration (B16F10 melanomas; [4]): even higher
cDC1 cells (B16F10 melanomas; [4]): increased
tumor-infiltrating NK cells (B16F10 melanomas; [4]): highest
PD-1 expression by CD8 T cells (B16F10 melanomas; compared to vehicle control group): reduced
CD8 T cell infiltration (B16F10 melanomas; monotherapy): substantially increased
number of tumor-infiltrating CD4 T cells or FoxP3+ Tregs (B16F10 melanomas; mouse, in vivo): did not change
cell stasis, IC50 [2]: nanomolar range
inhibition of PABP1 and SMB methylation, IC50 [2]: nanomolar range
